In the test the target is T1, Kir3.1/3.4 (Rattus norvegicus, UniProt P48548+P63251).
T1 construct: expressed in transfected cells
T1 sequence (P63251 1-501): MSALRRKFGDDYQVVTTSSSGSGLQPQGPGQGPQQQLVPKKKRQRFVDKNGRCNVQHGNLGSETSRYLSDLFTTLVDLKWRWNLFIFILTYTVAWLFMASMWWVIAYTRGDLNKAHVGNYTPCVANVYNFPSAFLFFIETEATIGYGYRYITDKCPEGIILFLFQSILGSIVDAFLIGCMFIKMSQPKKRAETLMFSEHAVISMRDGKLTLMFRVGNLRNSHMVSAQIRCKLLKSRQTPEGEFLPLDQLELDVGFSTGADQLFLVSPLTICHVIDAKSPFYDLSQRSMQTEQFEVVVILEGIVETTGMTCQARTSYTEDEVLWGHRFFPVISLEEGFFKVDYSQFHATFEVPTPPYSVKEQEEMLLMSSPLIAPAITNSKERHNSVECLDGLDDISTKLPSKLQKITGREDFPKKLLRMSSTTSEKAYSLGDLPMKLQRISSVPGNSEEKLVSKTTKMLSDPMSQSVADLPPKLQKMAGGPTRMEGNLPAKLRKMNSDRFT
T1 sequence (P48548 1-419): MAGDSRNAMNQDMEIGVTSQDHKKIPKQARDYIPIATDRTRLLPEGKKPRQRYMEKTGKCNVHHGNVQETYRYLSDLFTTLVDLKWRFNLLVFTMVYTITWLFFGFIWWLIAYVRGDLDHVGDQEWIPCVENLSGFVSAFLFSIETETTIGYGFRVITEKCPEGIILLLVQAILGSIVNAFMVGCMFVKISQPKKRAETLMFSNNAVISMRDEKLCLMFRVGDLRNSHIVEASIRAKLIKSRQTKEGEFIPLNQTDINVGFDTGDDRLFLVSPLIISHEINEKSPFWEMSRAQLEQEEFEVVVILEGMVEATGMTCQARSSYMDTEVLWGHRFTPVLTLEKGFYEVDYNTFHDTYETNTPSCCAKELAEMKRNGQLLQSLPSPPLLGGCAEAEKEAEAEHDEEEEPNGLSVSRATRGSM
Put plainly: Kir3.1/3.4 Electrophysiology Method (manual whole-cell patch clamp). It counts as cell-based. The conditions noted are these: Electrophysiology Method (TABLE 1). The procedure: Compound activity against the recombinant G-protein activated inward rectifier current encoded by the heterotetramer Kir3.1/3.4 was assessed using manual whole-cell patch technique. The heterotetramer forms the pore-forming channel that conducts the acetylcholine/adenosine-activated potassium current in the heart.
For whole-cell patch-clamp studies, cells (Human Embryonic Kidney 293 stably transfected with rat Kir3.1/3.4) were seeded onto glass coverslips before recordings were made. Cells were seeded in sterile 30 mm Petri dishes at a density to enable isolated cells to be selected for patch clamp experiments. The dishes were stored in a humidified, gassed (5% CO2) incubator at 37° C. until use.
Whole-cell patch-clamp recordings of membrane currents were made following gigaohm seal formation between the patch electrode and the cell using HEKA EPC-9/10 amplifiers controlled by Pulse Software (Ver8.5x/8.6×/8.7×, HEKA, Germany). Coverslips seeded with cells were placed in a recording chamber mounted on the stage of an inverted microscope. During the experiment, the cell of interest was continuously superfused with bather solution delivered via a cannula placed in close proximity to the cell to enable control of the extracellular solution environment. Only those cells with a current <−500 pA (current at −140 mV) were used for experiments. During experiments, series resistance was compensated by a minimum of 70%.
Electrophysiology voltage-step protocols and analysis of data were performed as follows. Data was sampled at 5 kHz, and filtered with a −3 dB bandwidth of 2.5 kHz. Cells were held at a voltage of −60 mV. Currents were evoked by a depolarising voltage step to +60 mV (100 ms) before a ramp-repolarisation (0.4 V·s^−1) to −140 mV (100 ms) before returning to −60 mV. The command waveform was repeatedly applied every 10 s throughout the experiment. Mean currents during 1-99% of the time at −140 mV were analysed using Pulsefit software (v8.x, HEKA, Germany). The voltage protocol was repeatedly applied to achieve a stable current baseline in bather before the test substance was superfused via the cannula in close proximity to the cell under investigation. The test substance was allowed to equilibrate during which time voltage protocol was repeatedly applied and recorded. On reaching steady-state inhibition, the cell was superfused with an identical bather solution containing zero external potassium chloride (replaced by equimolar NaCl). The identical current measurement was made in the absence of potassium to assess the passive leak at −140 mV. The leak current was subtracted from the control and steady-state drug current values. The percentage inhibition of the leak-subtracted current in the presence of test substance was calculated relative to the control leak-subtracted pre-drug value. Internal patch-pipette solution contained in mM: 110 KCl, 20 NaCl, 0.9 GTPγS, 5 Mg-ATP, 5 EGTA, 10 HEPES, pH7.2 corrected with KOH. The external superfusate composition in mM was: 150 (or 160) NaCl, 10 (or 0) KCl, 3 CaCl2, 1 MgCl, 10 HEPES, pH 7.4 corrected with NaOH.
Turning to `C(#Cc1ncnc2scc(-c3ccccc3)c12)COCCN1CCCC1` [Example 161, 5-Phenyl-4-[3-(2-pyrrolidinyl-1-ylethoxy)prop-1-ynyl]thieno[2,3-d]pyrimidine], the IC50 (in general, the concentration needed to halve the response being measured) was less than 0.5 µM.

The molecule `c1ccc(-c2csc3nccc(N4CCC(COCCN5CCCC5)CC4)c23)cc1` [Example 142, 3-phenyl-4-[4-(2-pyrrolidin-1-ylethoxymethyl)-1-piperidyl]thieno[2,3-b]pyridine] gave an IC50 of less than 0.5 µM.

On to `CC(C)c1cc2c(N3CCC(COCCC4CCCCN4C)CC3)ncnc2s1` (centres unmarked) [Example 25, 6-isopropyl-4-[4-[2-(1-methyl-2-piperidyl)ethoxymethyl]-1-piperidyl]thieno[2,3-d]pyrimidine], for which the IC50 is less than 0.5 µM.

`CN1CCC(N(C)CC2CCN(c3ncnc4scc(-c5ccccc5)c34)C2)C1` (centres unmarked) [Example 205] registered an IC50 of less than 0.5 µM.

In the case of `CN(C)S(=O)(=O)c1ccc(-c2csc3ncnc(N4CCC(COCCN5CCCC5)CC4)c23)cc1` [Example 44, N,N-dimethyl-4-[4-[4-(2-pyrrolidin-1-ylethoxymethyl)-1-piperidyl]thieno[2,3-d]pyrimidin-5-yl]benzenesulfonamide], the IC50 was in the range of 0.5 to 3 µM.

`COCCN(CCOC)CC1CCN(c2ncnc3scc(-c4ccccc4)c23)CC1` [Example 53, 2-methoxy-N-(2-methoxyethyl)-N-[[1-(5-phenylthieno[2,3-d]pyrimidin-4-yl)-4-piperidyl]methyl]ethanamine]: the IC50 is less than 0.5 µM.

Turning to `CN(CCC1CCCN1C)CC1CCN(c2ncnc3scc(-c4ccccc4)c23)CC1` (centres unmarked) [Example 101], the IC50 is less than 0.5 µM.

In turn, `c1ccc(-c2csc3ncnc(N4CCC(COC5CCC5)CC4)c23)cc1` [Example 9, 4-[4-(cyclobutoxymethyl)-1-piperidyl]-5-phenyl-thieno[2,3-d]pyrimidine] came in with an IC50 of less than 0.5 µM.

Regarding `c1nc(N2CCC(COCCN3CCCC3)CC2)c2c(-c3ccsc3)csc2n1` [Example 317], the IC50 was less than 0.5 µM.

For `Cc1sc2ncnc(N3CCC(CNCCC4CCCCN4C)CC3)c2c1C` (centres unmarked) [Example 233], the IC50 is less than 0.5 µM.

Turning to `CC1CC(CNCCC2CCCN2C)CN1c1ncnc2scc(-c3ccccc3)c12` (centres unmarked) [Example 209], the IC50 was less than 0.5 µM.

With `CN1CCC(NC2CCN(c3ncnc4scc(-c5ccccc5)c34)CC2)CC1` [Example 223], the IC50 is less than 0.5 µM.

The molecule `COCCNc1nc(N2CCC(CNC3CCC3)CC2)c2c(-c3ccccc3)csc2n1` [Example 126] yielded a 50% inhibitory concentration (IC50) of less than 0.5 µM.

Molecule “N-methyl-5-phenyl-thieno[2,3-d]pyrimidine-6-carboxamide [Example 343]” yielded an IC50 of 0.5 to 3 µM.

Take `O=C1CN(CCOCC2CCN(c3ncnc4scc(-c5ccccc5)c34)CC2)CCN1` [Example 28, 4-[2-[[1-(5-phenylthieno[2,3-d]pyrimidin-4-yl)-4-piperidyl]methoxy]ethyl]piperazin-2-one]: the IC50 is 0.5 to 3 µM.

Consider `COc1ccccc1-c1csc2ncnc(N3CCC(COCCN4CCCC4)CC3)c12` [Example 329], for which the IC50 was less than 0.5 µM.

Consider `CN1CCCCC1CCOCC1CCN(c2ncnc3scc(-c4cccc(F)c4)c23)CC1` (centres unmarked) [Example 36, 5-(3-fluorophenyl)-4-[4-[2-(1-methyl-2-piperidyl)ethoxymethyl]-1-piperidyl]thieno[2,3-d]pyrimidine], for which the IC50 was less than 0.5 µM.

For `CN(C)CCCNCC1CCN(c2ncnc3scc(-c4ccccc4)c23)CC1` [Example 217], the concentration for half-maximal inhibition (IC50) was less than 0.5 µM.

As to `NC(=O)C1CCN(c2nc(N3CC4CC3CO4)c3c(-c4ccccc4)csc3n2)C1` (centres unmarked) [Example 309], the IC50 lay in the range of 3 to 10 µM.

As for `CN1CCC(N(C)C(=O)C2CCCN(c3ncnc4scc(-c5ccccc5)c34)C2)C1` (centres unmarked) [Example 282], the IC50 lay within 0.5 to 3 µM.

Turning to `CC(=O)Nc1sc2ncnc(N3CCC(COCCN4CCCC4)CC3)c2c1-c1ccccc1` [Example 162, N-[5-phenyl-4-[4-(2-pyrrolidin-1-ylethoxymethyl)-1-piperidyl]thieno[2,3-d]pyrimidin-6-yl]acetamide], the IC50 is less than 0.5 µM.

On to `NC(=O)C1CCN(c2nc(N3C4CCC3CC(CO)C4)c3c(-c4ccccc4)csc3n2)C1` (centres unmarked) [Example 310], for which the IC50 was in the range of 0.5 to 3 µM.

For `CCCNCC1CCN(c2ncnc3scc(-c4ccccc4)c23)CC1` [Example 51, N-[[1-(5-phenylthieno[2,3-d]pyrimidin-4-yl)-4-piperidyl]methyl]propan-1-amine], the IC50 lay within 0.5 to 3 µM.

`Cn1ccnc1CCNCC1CCN(c2ncnc3scc(-c4ccccc4)c23)CC1` [Example 221] returned an IC50 of less than 0.5 µM.

In turn, `c1ccc(-c2csc3ncnc(N4CCC(OCCN5CCCC5)CC4)c23)cc1` [Example 271] had an IC50 of less than 0.5 µM.

Regarding `c1ccc(-c2csc3ncnc(N4CCC(CN5CCC5)CC4)c23)cc1` [Example 73, 4-[4-(azetidin-1-ylmethyl)-1-piperidyl]-5-phenyl-thieno[2,3-d]pyrimidine], the IC50 was in the range of 0.5 to 3 µM.

In the case of `COCCNCC1CCN(c2nc(NCCN3CCCC3)nc3scc(-c4ccccc4)c23)CC1` [Example 109], the IC50 was 0.5 to 3 µM.

Take `N#Cc1sc2ncnc(N3CCC(COCCN4CCCC4)CC3)c2c1-c1ccccc1` [Example 167, 5-phenyl-4-[4-(2-pyrrolidin-1-ylethoxymethyl)-1-piperidyl]thieno[2,3-d]pyrimidine-6-carbonitrile]: the IC50 was less than 0.5 µM.

Molecule `OCc1sc2ncnc(N3CCC(COCCN4CCCC4)CC3)c2c1-c1ccccc1` [Example 281, [5-phenyl-4-[4-(2-pyrrolidin-1-ylethoxymethyl)-1-piperidyl]thieno[2,3-d]pyrimidin-6-yl]methanol] had an IC50 of less than 0.5 µM.

`CN(CCC1CCCN1)CC1CCN(c2ncnc3scc(-c4ccccc4)c23)CC1` (centres unmarked) [Example 86, N-methyl-N-[[1-(5-phenylthieno[2,3-d]pyrimidin-4-yl)-4-piperidyl]methyl]-2-pyrrolidin-2-yl-ethanamine] gave a half-maximal inhibitory concentration (IC50) of less than 0.5 µM.

`c1ccc(COC2CCN(c3ncnc4scc(-c5ccccc5)c34)C2)cc1` (centres unmarked) [Example 178, d]pyrimidine]: the IC50 lay within 0.5 to 3 µM.

As to `N[C@H]1CCCN(CC2CCN(c3ncnc4scc(-c5ccccc5)c34)CC2)C1` [Example 90, (3S)-1-[[1-(5-phenylthieno[2,3-d]pyrimidin-4-yl)-4-piperidyl]methyl]piperidin-3-amine], the IC50 is less than 0.5 µM.

In turn, `c1ccc(-c2csc3ncnc(N4CCC(CNC5CC5)CC4)c23)cc1` [Example 74, N-[[1-(5-phenylthieno[2,3-d]pyrimidin-4-yl)-4-piperidyl]methyl]cyclopropanamine] gave an IC50 of less than 0.5 µM.

The molecule `Cc1sc2ncnc(N3CCC(CNC4CCN(C)CC4)CC3)c2c1C` [Example 232] showed an IC50 of less than 0.5 µM.

For `F[C@@H]1CCN(CCOCC2CCN(c3ncnc4scc(-c5ccccc5)c34)CC2)C1` [Example 32, 4-[4-[2-[(3R)-3-fluoropyrrolidin-1-yl]ethoxymethyl]-1-piperidyl]-5-phenyl-thieno[2,3-d]pyrimidine], the IC50 was less than 0.5 µM.
